Drawing on PubChem BioAssay AID463204 (Broad Institute, 2010), this text covers AC50 for 88 compounds.

The source made the active and inactive calls.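 How the source made its calls: active means AC50 no more than ten times the top concentration tested, that is within one log above it; inconclusive means flat curve fit with activity between 30% and 70%, or invalid poor fit; inactive means AC50 beyond ten times the top tested dose.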 Bounds are passed on as bounds.

The subject of this assay is S. cerevisiae Mot1-301 ts growth rescue, BacTiter-Glo ATP luminescence. Nature of the assay: growth rescue of Mot1-301 ts yeast, confirmation, SUMOylation pathway inhibitor project, whole organism, S. cerevisiae, Mot1-301 ts mutant, luminescence, dose retest (AID 463204).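 Further: growth at restrictive 38.5 degrees C of Mot1-301 OY566 strain; actives raise luminescence by restoring growth of the ts mutant at high temperature.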

The term AC50 denotes the midpoint of the concentration-response curve, whichever way the signal moves. As to `COCCn1c(C)cc(C(=O)CN2C(=O)NC3(CCCCCCC3)C2=O)c1C`, the AC50 is > 42 µM (inactive). For `CCN(CC(=O)NCc1ccc(Cl)cc1)C(=O)/C=C/c1ccc(C#N)cc1`, the AC50 is > 42 µM (inactive). Take `CC(C)NC(=O)NC(=O)COC(=O)CCCSc1nc2ccccc2s1`: the AC50 was > 42 µM (inactive). For `CCOc1ccc(N(CC(=O)NC2CCC(C)CC2)S(=O)(=O)c2c(C)noc2C)cc1` (stereo not drawn), the AC50 was > 42 µM (inactive). With `Cc1cc([N+](=O)[O-])nn1CC(=O)NNC(=S)Nc1ccc([N+](=O)[O-])cc1` the figure was > 42 µM (inactive); with `COc1cc(NC(=O)CCN2CCN(Cc3ccccc3)CC2)cc(OC)c1`, > 42 µM (inactive); with `COc1ccc(CNS(=O)(=O)c2ccc3c(c2)CCN3C(=O)C2CCC2)cc1`, > 42 µM (inactive). As to `COc1cc(NC(=O)c2ccccc2F)c(OC)cc1NC(=O)CN1CCCCC1`, the AC50 is > 42 µM (inactive). On to `CNc1csc(C)c(C)c1=O`, for which the AC50 was > 42 µM (inactive). With `CC1CC(N(C(=O)c2ccccc2Cl)c2ccccc2)c2ccccc2N1` (stereo not drawn) the figure was > 42 µM (inactive); with `CCOc1ccc(NC(=O)CNc2ccc(C)cc2Cl)cc1`, > 42 µM (inactive); with `COc1ccc(C2CC3(CC(C)(C)NC(=S)N3)Oc3cc(O)cc(C)c32)cc1` (stereo not drawn), > 42 µM (inactive). On to `Cc1ccc(N(CC(=O)Nc2cccc(C)c2)S(=O)(=O)c2cccc3nonc23)cc1`, for which the AC50 was > 21 µM (inactive). `COc1ccc(CN(C)C(=O)c2sccc2-c2ccccc2)c(OC)c1`: the AC50 was > 42 µM (inactive).

Consider `Cn1c(=O)[nH]c(=O)c2c1nc(NCCN)n2CCOc1ccccc1`, for which the AC50 was > 42 µM (inactive).

Turning to `O=C(Nc1ccc2ccccc2c1)N1CCCN(CCOc2ccccc2)CC1`, the AC50 was > 42 µM (inactive). For `O=C(NC1CCc2ccccc21)c1cc(COc2ccc(F)cc2F)on1` (stereo not drawn), the AC50 was > 42 µM (inactive). With `Cn1cnnc1-c1cccc(NS(=O)(=O)c2ccc(N3CCCC3=O)cc2)c1`, the AC50 is > 42 µM (inactive). With `CCOC(=O)c1c(C)[nH]c(O)c1C=Nc1ccccc1` the figure was > 42 µM (inactive). With `C[C@@]12C(=O)Nc3cc(Cl)ccc3C(=O)N1[C@H]1c3ccccc3OC[C@@H]1[C@@H]2c1ccccc1` the figure was 1.98 µM; with `Oc1ccc(C2=CSC3=NCCN23)cc1O`, > 42 µM (inactive). With `CSc1cc(C)c(OCC(=O)Nc2c(C)nn(C)c2C)c(C)c1`, the AC50 was > 42 µM (inactive). The same measure for `COc1cc(C(=O)NCCC2=CCCCC2)ccc1OC1CCN(C(C)=O)CC1`: > 42 µM (inactive); for `COc1cc([C@@H]2CC=C(C(=O)O)[C@H](c3ccccc3F)N2S(=O)(=O)c2ccc(C)cc2)cc(OC)c1OC`: > 42 µM (inactive); for `COC(=O)[C@H](Cc1ccccc1)NC(=O)NC(C)CCc1ccccc1` (stereo partly drawn): > 42 µM (inactive). As for `CCCCc1ccc(S(=O)(=O)NNC(=S)NCc2ccco2)cc1`, the AC50 is > 42 µM (inactive). For the compound `O=C(/C=C/c1ccc(Cl)cc1)NCc1ccncc1`, the AC50 is > 42 µM (inactive). For the compound `O=C1c2cc(N3CCCC3)c([N+](=O)[O-])cc2C(=O)N1c1ccccc1`, the AC50 is > 42 µM (inactive).

Regarding `COc1ccc(C(=O)Nn2c(SCC(=O)NCc3ccccc3)nc3ccccc3c2=O)cc1`, the AC50 was > 42 µM (inactive). As for `CCOc1ccc(C(=O)NCC2OCCc3ccccc32)cc1` (stereo not drawn), the AC50 was > 42 µM (inactive).

As to `CCCC(=O)N(CCN1CCOCC1)c1nc2ccc(OCC)cc2s1`, the AC50 was > 42 µM (inactive). The same measure for `Cc1ccc(S(=O)(=O)N[C@@H](Cc2ccccc2)C(=O)CCl)cc1`: 1.47 µM; for `Cc1cc(C)n(C(=O)CNC(=O)c2ccc3c(c2)OCCO3)n1`: > 42 µM (inactive). With `O=C1CC(c2ccccc2)C(=O)N1c1cccc(O)c1` (stereo not drawn), the AC50 is > 42 µM (inactive). As to `O=C(COC(=O)c1ccc([N+](=O)[O-])o1)Nc1ncc(Cl)cc1Cl`, the AC50 was 9.48 µM.

For `CC(=O)N(C(C)=O)C1=C(C#N)C2(CCCCC2)Cc2ccccc21`, the AC50 was > 42 µM (inactive).

On to `Cc1ccc(C(=O)/C=C/Nc2ccccc2C(N)=O)cc1`, for which the AC50 is > 42 µM (inactive). With `CCOc1ccc(CCNC(=O)COC(=O)COc2ccc(C(C)=O)cc2)cc1OCC` the figure was > 42 µM (inactive). As for `CC(=O)N1N=C(N)SC12CCCC2`, the AC50 was > 42 µM (inactive). With `Cc1ccc2nc(NC(=O)CNS(=O)(=O)c3ccc(Br)s3)sc2c1`, the AC50 was > 42 µM (inactive). As for `Cc1cc(C#Cc2c(-c3ccccc3)n(C)c3ccccc23)ccc1F`, the AC50 is > 42 µM (inactive). The same measure for `COc1ccc2cc(C#N)c(Nc3cccc(F)c3)nc2c1`: > 42 µM (inactive).

For the compound `COCC(=O)NNC(=O)c1ccccc1OC`, the AC50 was > 42 µM (inactive). Turning to `CCOC(=O)c1sc(N/N=C/c2ccc(N(C)C)cc2)nc1C`, the AC50 was > 42 µM (inactive). Consider `COc1cccc(NC(=O)CNC(=O)c2ccc(C)cc2)c1`, for which the AC50 is > 42 µM (inactive). Turning to `COc1ccc(-c2cc(CC3(C(=O)O)CCN(C(=O)OC(C)(C)C)CC3)on2)c(OC)c1`, the AC50 is > 42 µM (inactive). In the case of `Cc1ccc(SCCC(=O)Nc2ccc(OCc3ccccc3)cc2)cc1`, the AC50 is > 42 µM (inactive). With `CC(C)(C)c1ccc(C(=O)COC(=O)CN2C(=O)NC3(CCCC3)C2=O)cc1`, the AC50 is > 42 µM (inactive). The same measure for `O=C1c2cccc3c(N4CCCCC4)ccc(c23)C(=O)N1CCO`: > 42 µM (inactive); for `CCCCc1nnc(NC(=O)CSc2nc(O)c(-c3ccccc3)c(=O)[nH]2)s1`: > 42 µM (inactive); for `CCCCC(=O)NCCc1ccc(S(N)(=O)=O)cc1`: > 42 µM (inactive). For `COC(=O)c1cc(Cl)c(NC(=O)C(C)C)cc1OC`, the AC50 is > 42 µM (inactive). Regarding `CC(C)(C)NC(=O)CN(C(=O)CCC(=O)Nc1nccs1)c1ccc2c(c1)OCCO2`, the AC50 is > 42 µM (inactive). Regarding `CCn1c(SCC(=O)N/N=C/c2ccccc2OCC(=O)O)nnc1-c1ccc(C(C)(C)C)cc1`, the AC50 was 32.7 µM. With `COc1cc(/C=C2\NC(=S)N(C)C2=O)ccc1OCc1cccc(F)c1`, the AC50 is > 42 µM (inactive).

For `O=C(O)CNS(=O)(=O)Cc1ccccc1`, the AC50 was > 42 µM (inactive). The same measure for `O=C(NC1CCCCC1)c1ccc2snnc2c1`: > 42 µM (inactive); for `CCN(Cc1ccccc1)Cc1ccc(OCc2ccccc2)c(OC)c1`: > 42 µM (inactive). With `CCOC(=O)c1ccc(NC(=O)c2c(NC(=O)CCC(=O)O)sc3c2CCCCC3)cc1`, the AC50 was > 42 µM (inactive). For the compound `O=C(COC(=O)CNC(=O)c1ccc(Cl)cc1)Nc1ncc(C(F)(F)F)cc1Cl`, the AC50 is > 42 µM (inactive). The same measure for `O=[N+]([O-])c1nn(-c2ccc(Cl)cc2)n(O)c1=NCc1ccccc1Cl`: 24 µM; for `COc1ccccc1CNC(=O)C1CCC(=O)N1C(C)C` (stereo not drawn): > 42 µM (inactive). Take `O=C(O)c1ccc(/C=N/NC(=O)c2cc(-c3ccc4c5c(cccc35)CC4)n[nH]2)cc1`: the AC50 is > 42 µM (inactive). The same measure for `COc1ccc(Cl)cc1NC(=O)C1CCCN(c2cc(C)nc3ncnn23)C1` (stereo not drawn): > 42 µM (inactive); for `OC1(c2ccc(F)cc2)CC2CCC(C1)N2Cc1nnnn1C1CCCCC1` (stereo not drawn): > 42 µM (inactive). With `COc1ccc(/C=N/NC(=O)CCC(=O)Nc2ccccc2)cc1OC` the figure was > 42 µM (inactive). On to `Cc1ccc(C(=O)NC(NC(=O)c2ccc(C)cc2)C(Cl)Cl)cc1`, for which the AC50 is > 42 µM (inactive).

As to `CC1CCN(Cc2nc3c(c(=O)n(C)c(=O)n3C)n2CCc2ccccc2)CC1`, the AC50 is > 42 µM (inactive). Regarding `Cc1cc(C(=O)NNC(=O)c2ccc(C)s2)c(C)o1`, the AC50 is > 42 µM (inactive). As for `Cc1ccc(C(=O)c2cc([N+](=O)[O-])ccc2N2CCCCC2)cc1C`, the AC50 is > 42 µM (inactive). The same measure for `CNC(=O)c1ccccc1S(=O)c1ccccc1COC(C)=O` (stereo not drawn): > 42 µM (inactive); for `CCN(CC)S(=O)(=O)c1ccc(S(=O)(=O)N2CCC(C(=O)NC3CCN(Cc4ccccc4)CC3)CC2)cc1`: > 42 µM (inactive). Regarding `CCOc1cc(/C=C2\NC(=O)NC2=O)ccc1OC(C)C(=O)O` (stereo not drawn), the AC50 was > 42 µM (inactive).

Turning to `N#C/C(=C\c1c(N(Cc2ccccc2)Cc2ccccc2)nc2ccccn2c1=O)C(N)=O`, the AC50 is > 42 µM (inactive). With `CCOC(=O)N1CCN(S(=O)(=O)c2ccc(Br)s2)CC1`, the AC50 was > 42 µM (inactive). On to `CCCCCC(=O)Nc1nnn(CCC)n1`, for which the AC50 was > 42 µM (inactive). As to `CCCCOc1ccc(C(=O)Nc2ccc(CN3CCOCC3)cc2)cc1`, the AC50 was > 42 µM (inactive). With `COC(=O)c1ccc(N2C(=O)CC(NCc3ccccc3)C2=O)cc1` (stereo not drawn) the figure was > 42 µM (inactive); with `CC1(C)C(C=C(Cl)Cl)C1C(=O)OCc1cccc(Oc2ccccc2)c1` (stereo not drawn), > 42 µM (inactive); with `CN1C(=O)C(=Cc2ccc(N3CCCCC3)o2)C(=O)N(C)C1=S`, > 42 µM (inactive). As for `COc1cc(NC(=O)C2=CC(c3ccco3)=NS(=O)(=O)N2C)cc(OC)c1OC`, the AC50 was > 42 µM (inactive). With `O=C(NCc1ccccc1Cl)c1ccc2c(c1)OCO2` the figure was 30.4 µM; with `O=C(O)COc1ccc(Br)cc1/C=N\Nc1ccccn1`, > 42 µM (inactive); with `O=C1OC(Cc2ccccn2)C(O)=C1C1=NCCCN1` (stereo not drawn), > 42 µM (inactive).

`C/C(=C\C(=O)N1CCc2ccccc21)C(=O)O`: the AC50 was > 42 µM (inactive). For `O=S(=O)(c1ccc(S(=O)(=O)N2CCCC2)cc1)N1CCCCC1`, the AC50 was > 42 µM (inactive). Regarding `CC(=O)c1c(N)[nH]c(-c2ccccc2)nc1=S`, the AC50 is > 42 µM (inactive). Turning to `Cc1ccc(S(=O)(=O)N2[C@@H](c3ccccc3F)C(C(=O)O)=CC[C@H]2c2ccc3c(c2)OCO3)cc1`, the AC50 is > 42 µM (inactive).
